Here are results for 14 compounds from patent publication US20260007681A1, “INDOLE DERIVATIVES AS ESTROGEN RECEPTOR DEGRADERS” (REGENTS OF THE UNIVERSITY OF MICHIGAN, priority 2022, published 2026).

ER, sequence (P03372 whole entry): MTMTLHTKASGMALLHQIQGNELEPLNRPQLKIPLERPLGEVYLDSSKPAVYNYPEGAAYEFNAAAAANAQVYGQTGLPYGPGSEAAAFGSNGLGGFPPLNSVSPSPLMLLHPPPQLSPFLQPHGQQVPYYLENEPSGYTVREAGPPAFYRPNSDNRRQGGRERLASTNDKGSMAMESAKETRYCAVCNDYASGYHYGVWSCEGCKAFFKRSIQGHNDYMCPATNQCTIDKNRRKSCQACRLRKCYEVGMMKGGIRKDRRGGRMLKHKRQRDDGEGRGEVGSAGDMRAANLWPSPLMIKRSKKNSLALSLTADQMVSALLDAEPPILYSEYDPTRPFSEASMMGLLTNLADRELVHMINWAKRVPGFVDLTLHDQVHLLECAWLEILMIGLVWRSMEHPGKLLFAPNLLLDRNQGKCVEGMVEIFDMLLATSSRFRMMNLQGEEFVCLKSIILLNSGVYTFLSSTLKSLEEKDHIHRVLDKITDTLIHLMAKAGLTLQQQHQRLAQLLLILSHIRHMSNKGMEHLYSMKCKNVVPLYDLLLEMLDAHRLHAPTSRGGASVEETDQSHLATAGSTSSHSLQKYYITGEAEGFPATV

The assay addresses ER (Homo sapiens (Human), UniProt P03372). The assay is described as follows: Western blot analysis (Compounds B1-B278). In kind it is cell-based. The conditions noted are these: ER degradation by traditional Western blot; DC50 classes. The protocol:
Western Blot Analysis. The cells that are treated with the compounds are lysed in Radioimmunoprecipitation Assay Protein Lysis and Extraction Buffer (e.g., 25 mmol/L Tris.HCl, pH 7.6, 150 mmol/L NaCl, 1% Nonidet P-40, 1% sodium deoxycholate, and 0.1% sodium dodecyl sulfate) containing proteinase inhibitor cocktail. Equal amounts of total protein are electrophoresed through 10% SDS-polyacrylamide gels after determination of protein concentration by BCA assay. The separated protein bands are transferred onto PVDF membranes and blotted against different antibodies. The blots are scanned, and the band intensities are quantified (e.g., by using GelQuant.NET software provided by biochemlabsolutions.com). The relative mean intensity of target proteins is expressed after normalization to the intensity of glyceraldehyde-3-phosphate dehydrogenase bands.
Western Blot Analysis. Western blot analysis was performed essentially as described previously. The cells treated with indicated compounds were lysed in Radioimmunoprecipitation Assay Protein Lysis and Extraction Buffer (25 mmol/L Tris.HCl, pH 7.6, 150 mmol/L NaCl, 1% Nonidet P-40, 1% sodium deoxycholate, and 0.1% sodium dodecyl sulfate) containing proteinase inhibitor cocktail (Roche Diagnostics, Mannheim, Germany). Equal amounts of total protein were electrophoresed through 10% SDS-polyacrylamide gels after determination of protein concentration by BCA assay (Fisher Scientific, Pittsburgh, PA). The separated protein bands were transferred onto PVDF membranes (GE Healthcare Life Sciences, Marlborough, MA) and blotted against different antibodies, as indicated. The blots were scanned, and the band intensities were quantified using GelQuant.NET software provided by biochemlabsolutions.com. The relative mean intensity of target proteins was expressed after normalization to the intensity of glyceraldehyde-3-phosphate dehydrogenase bands.
For orientation: Immunoblotting shows a protein as a band on a membrane.
On to `C[C@@H]1Cc2c([nH]c3ccccc23)[C@@H](c2c(F)cc(N3CCCC4(CCN(C(=O)CN5Cc6cc7c(cc6C5)C(=O)N(C5CCC(=O)NC5=O)C7=O)C4)C3)cc2F)N1CC(F)F` (stereo partly drawn) [Compound B21, 6-(2-(7-(4-((1R,3R)-2-(2,2-difluoroethyl)-3-methyl-2,3,4,9-tetrahydro-1H-pyrido[3,4-b]indol-1-yl)-3,5-difluorophenyl)-2,7-diazaspiro[4.5]decan-2-yl)-2-oxoethyl)-2-(2,6-dioxopiperidin-3-yl)-6,7-dihydropyrrolo[3,4-f]isoindole-1,3(2H,5H)-dione], for which the “Traditional Western Degradation Potency” value is “C (“C”: >100 nM)”.

With `C[C@@H]1Cc2c([nH]c3ccccc23)[C@@H](c2c(F)cc(N3CCC4(CCN(C(=O)CN5Cc6cc7c(cc6C5)C(=O)N(C5CCC(=O)NC5=O)C7=O)C4)C3)cc2F)N1CC(F)F` (stereo partly drawn) [Compound B22, 6-(2-(7-(4-((1R,3R)-2-(2,2-difluoroethyl)-3-methyl-2,3,4,9-tetrahydro-1H-pyrido[3,4-b]indol-1-yl)-3,5-difluorophenyl)-2,7-diazaspiro[4.4]nonan-2-yl)-2-oxoethyl)-2-(2,6-dioxopiperidin-3-yl)-6,7-dihydropyrrolo[3,4-f]isoindole-1,3(2H,5H)-dione], the “Traditional Western Degradation Potency” value is “B (“B”: 10-100 nM)”.

As to `C[C@H]1Cc2c([nH]c3ccccc23)[C@H](c2c(F)cc(N3CC4(CCCN(C(=O)CN5Cc6cc7c(cc6C5)C(=O)N(C5CCC(=O)NC5=O)C7=O)C4)C3)cc2F)N1CC(F)F` (stereo partly drawn) [Compound B23, 6-(2-(2-(4-((1S,3S)-2-(2,2-difluoroethyl)-3-methyl-2,3,4,9-tetrahydro-1H-pyrido[3,4-b]indol-1-yl)-3,5-difluorophenyl)-2,6-diazaspiro[3.5]nonan-6-yl)-2-oxoethyl)-2-(2,6-dioxopiperidin-3-yl)-6,7-dihydropyrrolo[3,4-f]isoindole-1,3(2H,5H)-dione], the “Traditional Western Degradation Potency” value is given as “B (“B”: 10-100 nM)”.

In the case of `C[C@@H]1Cc2c([nH]c3ccccc23)[C@@H](c2c(F)cc(N3CCCC4(CN(C(=O)CN5Cc6cc7c(cc6C5)C(=O)N(C5CCC(=O)NC5=O)C7=O)C4)C3)cc2F)N1CC(F)F` (stereo partly drawn) [Compound B24, 6-(2-(6-(4-((1R,3R)-2-(2,2-difluoroethyl)-3-methyl-2,3,4,9-tetrahydro-1H-pyrido[3,4-b]indol-1-yl)-3,5-difluorophenyl)-2,6-diazaspiro[3.5]nonan-2-yl)-2-oxoethyl)-2-(2,6-dioxopiperidin-3-yl)-6,7-dihydropyrrolo[3,4-f]isoindole-1,3(2H,5H)-dione], the “Traditional Western Degradation Potency” value is on record as “B (“B”: 10-100 nM)”.

On to `C[C@@H]1Cc2c([nH]c3ccccc23)[C@@H](c2c(F)cc(N3CC4(CN(C(=O)CN5Cc6cc7c(cc6C5)C(=O)N(C5CCC(=O)NC5=O)C7=O)C4)C3)cc2F)N1CC(F)F` (stereo partly drawn) [Compound B25, 6-(2-(6-(4-((1R,3R)-2-(2,2-difluoroethyl)-3-methyl-2,3,4,9-tetrahydro-1H-pyrido[3,4-b]indol-1-yl)-3,5-difluorophenyl)-2,6-diazaspiro[3.3]heptan-2-yl)-2-oxoethyl)-2-(2,6-dioxopiperidin-3-yl)-6,7-dihydropyrrolo[3,4-f]isoindole-1,3(2H,5H)-dione], for which the “Traditional Western Degradation Potency” value was “A (“A”: <10 nM)”.

Turning to `C[C@@H]1Cc2c([nH]c3ccccc23)[C@@H](c2c(F)cc(N3CCC4(CN(C(=O)CN5Cc6cc7c(cc6C5)C(=O)N(C5CCC(=O)NC5=O)C7=O)C4)C3)cc2F)N1CC(F)F` (stereo partly drawn) [Compound B26, 6-(2-(6-(4-((1R,3R)-2-(2,2-difluoroethyl)-3-methyl-2,3,4,9-tetrahydro-1H-pyrido[3,4-b]indol-1-yl)-3,5-difluorophenyl)-2,6-diazaspiro[3.4]octan-2-yl)-2-oxoethyl)-2-(2,6-dioxopiperidin-3-yl)-6,7-dihydropyrrolo[3,4-f]isoindole-1,3(2H,5H)-dione], the “Traditional Western Degradation Potency” value is “A (“A”: <10 nM)”.

With `C[C@H]1Cc2c([nH]c3ccccc23)[C@H](c2c(F)cc(N3CC4(CCN(C(=O)CN5Cc6cc7c(cc6C5)C(=O)N(C5CCC(=O)NC5=O)C7=O)CC4)C3)cc2F)N1CC(F)F` (stereo partly drawn) [Compound B27, 6-(2-(2-(4-((1S,3S)-2-(2,2-difluoroethyl)-3-methyl-2,3,4,9-tetrahydro-1H-pyrido[3,4-b]indol-1-yl)-3,5-difluorophenyl)-2,7-diazaspiro[3.5]nonan-7-yl)-2-oxoethyl)-2-(2,6-dioxopiperidin-3-yl)-6,7-dihydropyrrolo[3,4-f]isoindole-1,3(2H,5H)-dione], the “Traditional Western Degradation Potency” value was “A (“A”: <10 nM)”.

Regarding `C[C@H]1Cc2c([nH]c3ccccc23)[C@H](c2c(F)cc(N3CC4(CCN(C(=O)CN5Cc6cc7c(cc6C5)C(=O)N(C5CCC(=O)NC5=O)C7)CC4)C3)cc2F)N1CC(F)F` (stereo partly drawn) [Compound B28, 3-(6-(2-(2-(4-((1S,3S)-2-(2,2-difluoroethyl)-3-methyl-2,3,4,9-tetrahydro-1H-pyrido[3,4-b]indol-1-yl)-3,5-difluorophenyl)-2,7-diazaspiro[3.5]nonan-7-yl)-2-oxoethyl)-1-oxo-3,5,6,7-tetrahydropyrrolo[3,4-f]isoindol-2(1H)-yl)piperidine-2,6-dione], the “Traditional Western Degradation Potency” value is given as “A (“A”: <10 nM)”.

`C[C@@H]1Cc2c([nH]c3ccccc23)[C@@H](c2c(F)cc(N3CCC(N4CCC(CN5Cc6cc7c(cc6C5)C(=O)N(C5CCC(=O)NC5=O)C7)CC4)CC3)cc2F)N1CC(F)F` (stereo partly drawn) [Compound B29, 3-(6-((1′-(4-((1R,3R)-2-(2,2-difluoroethyl)-3-methyl-2,3,4,9-tetrahydro-1H-pyrido[3,4-b]indol-1-yl)-3,5-difluorophenyl)-[1,4′-bipiperidin]-4-yl)methyl)-1-oxo-3,5,6,7-tetrahydropyrrolo[3,4-f]isoindol-2(1H)-yl)piperidine-2,6-dione]: the “Traditional Western Degradation Potency” value was “B (“B”: 10-100 nM)”.

Take `C[C@@H]1Cc2c([nH]c3ccccc23)[C@@H](c2c(F)cc(N3CCC(N4CCC(N5Cc6cc7c(cc6C5)C(=O)N(C5CCC(=O)NC5=O)C7=O)CC4)CC3)cc2F)N1CC(F)F` (stereo partly drawn) [Compound B30, 6-(1′-(4-((1R,3R)-2-(2,2-difluoroethyl)-3-methyl-2,3,4,9-tetrahydro-1H-pyrido[3,4-b]indol-1-yl)-3,5-difluorophenyl)-[1,4′-bipiperidin]-4-yl)-2-(2,6-dioxopiperidin-3-yl)-6,7-dihydropyrrolo[3,4-f]isoindole-1,3(2H,5H)-dione]: the “Traditional Western Degradation Potency” value is recorded as “C (“C”: >100 nM)”.

With `C[C@@H]1Cc2c([nH]c3ccccc23)[C@@H](c2c(F)cc(N3CCC(N4Cc5cc6c(cc5C4)C(=O)N(C4CCC(=O)NC4=O)C6=O)CC3)cc2F)N1CC(F)F` (stereo partly drawn) [Compound B31, 6-(1-(4-((1R,3R)-2-(2,2-difluoroethyl)-3-methyl-2,3,4,9-tetrahydro-1H-pyrido[3,4-b]indol-1-yl)-3,5-difluorophenyl)piperidin-4-yl)-2-(2,6-dioxopiperidin-3-yl)-6,7-dihydropyrrolo[3,4-f]isoindole-1,3(2H,5H)-dione], the “Traditional Western Degradation Potency” value is on record as “C (“C”: >100 nM)”.

With `C[C@@H]1Cc2c([nH]c3ccccc23)[C@@H](c2c(F)cc(N3CCC(CN4Cc5cc6c(cc5C4)C(=O)N(C4CCC(=O)NC4=O)C6=O)CC3)cc2F)N1CC(F)F` (stereo partly drawn) [Compound B32, 6-((1-(4-((1R,3R)-2-(2,2-difluoroethyl)-3-methyl-2,3,4,9-tetrahydro-1H-pyrido[3,4-b]indol-1-yl)-3,5-difluorophenyl)piperidin-4-yl)methyl)-2-(2,6-dioxopiperidin-3-yl)-6,7-dihydropyrrolo[3,4-f]isoindole-1,3(2H,5H)-dione], the “Traditional Western Degradation Potency” value was “C (“C”: >100 nM)”.

Consider `C[C@@H]1Cc2c([nH]c3ccccc23)[C@@H](c2c(F)cc(N3CCC(N4CCC(CC(=O)N5Cc6cc7c(cc6C5)C(=O)N(C5CCC(=O)NC5=O)C7=O)CC4)CC3)cc2F)N1CC(F)F` (stereo partly drawn) [Compound B33, 6-(2-(1′-(4-((1R,3R)-2-(2,2-difluoroethyl)-3-methyl-2,3,4,9-tetrahydro-1H-pyrido[3,4-b]indol-1-yl)-3,5-difluorophenyl)-[1,4′-bipiperidin]-4-yl)acetyl)-2-(2,6-dioxopiperidin-3-yl)-6,7-dihydropyrrolo[3,4-f]isoindole-1,3(2H,5H)-dione], for which the “Traditional Western Degradation Potency” value was “A (“A”: <10 nM)”.

Take `C[C@@H]1Cc2c([nH]c3ccccc23)[C@@H](c2c(F)cc(N3CCC(N4CCC(CC(=O)N5Cc6cc7c(cc6C5)C(=O)N(C5CCC(=O)NC5=O)C7)CC4)CC3)cc2F)N1CC(F)F` (stereo partly drawn) [Compound B34, 3-(6-(2-(1′-(4-((1R,3R)-2-(2,2-difluoroethyl)-3-methyl-2,3,4,9-tetrahydro-1H-pyrido[3,4-b]indol-1-yl)-3,5-difluorophenyl)-[1,4′-bipiperidin]-4-yl)acetyl)-1-oxo-3,5,6,7-tetrahydropyrrolo[3,4-f]isoindol-2(1H)-yl)piperidine-2,6-dione]: the “Traditional Western Degradation Potency” value was “A (“A”: <10 nM)”.
